Results from patent US12404244B2, “Pan-KIT kinase inhibitor having quinoline structure and application thereof” (Tarapeutics Science Inc., priority 2018, dated 2025).

Assays:
[1] = tested on: TEL-cKIT/T670I-BaF3 mouse tumor model; experiment: Tumor-grafted mouse model established with TEL-cKIT/T670I-BaF3 cells; assay type: in vivo; conditions: oral, every day
Description: (§1) In this example Compound 1 and Compound 2 were respectively tested in TEL-cKIT/T670I-BaF3, TEL-cKIT/Y823D-BaF3, TEL-cKIT/D820G-BaF3 and GIST-T1-T670I mouse models.
(§2) Experimental protocols were as follows. • (1) Bal b/c female mice aged 4-6 weeks were purchased from Beijing Weitong Lihua Laboratory Animal Co., Ltd., and the mice were raised in an SPF laboratory. The drinking water and padding were sterilized by autoclaving. All operations on mice were conducted under aseptic conditions. • (2) About 5×10^6 TEL-cKIT/T670I-BaF3, TEL-cKIT/Y823D-BaF3, TEL-cKIT/D820G-BaF3 or GIST-T1-T670I cells were respectively injected subcutaneously onto the left back of all mice on Day 0. • (3) From Day 6, for the TEL-cKIT/T670I-BaF3 mouse model the corresponding mice were administrated orally every day with methylcellulose (HKI) as the vehicle (5 mice); with Compound 1 and Compound 2 at a dosage of 10 mg/kg, 20 mg/kg, 40 mg/kg, 100 mg/kg mouse weight (5 mice in each group); and with Sunitnib (purchased from MedChemExpress, China) at a dosage of 40 mg/kg mouse weight (5 mice). From day 6, for the TEL-cKIT/Y823D-BaF3 and TEL-cKIT/D820G-BaF3 mouse models the corresponding mice were administrated orally every day with methylcellulose (HKI) as the vehicle (5 mice); with Compound 1 and Compound 2 at a dosage of 40 mg/kg, 80 mg/kg mouse weight (5 mice in each group); and with Sunitnib (purchased from MedChemExpress, China) at a dosage of 40 mg/kg mouse weight (5 mice). From day 15, for the GIST-T1-T670I mouse model the corresponding mice were administrated orally every day with methylcellulose (HKI) as the vehicle (5 mice); with Compound 1 and Compound 2 at a dosage of 20 mg/kg, 40 mg/kg, 80 mg/kg mouse weight (5 mice in each group); and with Sunitnib at a dosage of 40 mg/kg mouse weight (5 mice). • (4) From day 6 (TEL-cKIT/T670I-BaF3, TEL-cKIT/Y823D-BaF3, TEL-cKIT/D820G-BaF3 mouse model) and From day 15 (GIST-T1-T670I mouse model), respectively, the length/width of the subcutaneous tumor were measured with a vernier caliper every day and the body weight of the mouse was recorded every day so as to determine the effects of Compound 1 and Compound 2 on the body weight and tumor size of the mice, respectively. • (5) The mice were sacrificed on Day 11 after administration for the TEL-cKIT/T670I-BaF3 mouse model, on Day 9 after administration for the TEL-cKIT/Y823D-BaF3 and TEL-cKIT/D820G-BaF3 mouse models, and on Day 28 after administration for the GIST-T1-T670I mouse model. The subcutaneous tumors were taken out, and the tumors were weighed and compared. • (6) The growth trend of subcutaneous tumors was calculated and the tumor size was calculated according to: length×width×width/2 mm^3.

[2] = tested on: GIST-T1-T670I mouse tumor model; experiment: Tumor-grafted mouse model established with GIST-T1-T670I cells; assay type: in vivo; conditions: oral, every day
Description: as §1, §2

In the case of `COc1cc2nccc(Oc3ccc(NC(=O)Cc4ccc(C)c(C(F)(F)F)c4)cc3)c2cc1OC` [Example 1, N-(4-((6,7-dimethoxyquinolin-4-yl)oxy)phenyl)-2-(4-methyl-3-(trifluoromethyl)phenyl)acetamide], the “inhibitory effects against tumor in mice” value ([1]; 40 mg/kg) is reported as “excellent inhibitory effects against tumor in mice”, the “influence on mice weight” value [1] is reported as “without significant influence on mice weight” and the “inhibitory effects against tumor in mice” value ([2]; 40 mg/kg) is reported as “excellent inhibitory effects against tumor in mice”. The “influence on mice weight” value [2] was “without significant influence on mice weight”.
For `COc1cc2nccc(Oc3ccc(NC(=O)Cc4ccc(Cl)c(C(F)(F)F)c4)cc3)c2cc1OC` [Example 2, N-(4-((6,7-dimethoxyquinolin-4-yl)oxy)phenyl)-2-(4-chloro-3-(trifluoromethyl)phenyl)-acetamide], the “inhibitory effects against tumor in mice” value ([1]; 40 mg/kg) was “excellent inhibitory effects against tumor in mice”, the tumor inhibition rate ([1]; 40 mg/kg) was at least 80% and the “influence on mice weight” value [1] was “without significant influence on mice weight”. The “inhibitory effects against tumor in mice” value ([2]; 40 mg/kg) was “excellent inhibitory effects against tumor in mice”, the tumor inhibition rate ([2]; 40 mg/kg) was at least 80% and the “influence on mice weight” value [2] was “without significant influence on mice weight”.
